In patent US8506984B2, “Therapeutic agent elution control process” (Cordis Corporation, priority 2006, dated 2013):

Key:
[1] = Drug concentration in liquid formulations (liquid chromatography / HPLC); format: physicochemical; details: Vitamin E TPGS excipient, water and ethanol (<2%) co-solvents
Text: In accordance with exemplary embodiments of the present invention, a series of liquid formulations were developed for the local or regional delivery of water insoluble compounds such as sirolimus and its analogs, including CCI-779, ABT-578 and everolimus, through weeping balloons and catheter injection needles. […] These liquid formulations increase the apparent solubility of the pharmacologically active but water insoluble compounds by two to four orders of magnitude as compared to the solubility limits of the compounds in water. These liquid formulations rely on the use of a very small amount of organic solvents such as Ethanol (typically less than two percent) and a larger amount of safe amphiphilic (of or relating to a molecule having a polar, water soluble group attached to a non-polar, water insoluble […]) excipients such as polyethylene glycol (PEG 200, PEG 400) and vitamin E TPGS to enhance the solubility of the compounds. These liquid formulations of highly water insoluble compounds are stable and readily flowable at room temperature. Certain excipients, such as Vitamin E TPGS and BHT may be utilized to enhance the storage stability of sirolimus compounds through their anti-oxidation properties. […]

[2] = test system: human coronary artery smooth muscle cells; test: Proliferation of non-synchronized cultured human coronary artery smooth muscle cells stimulated with two percent fetal bovine serum; format: cell-based; details: for effect of added agent on anti-proliferative rapamycin dose response: added to rapamycin-treated cells
Text: The multiple curves represent various concentrations of mycophenolic acid ranging from zero to one thousand nanomolar concentrations. […] This potentiation observed in cultured coronary artery smooth muscle cells preferably translates to an enhancement in anti-restenotic efficacy following vascular injury and a reduction in the required amount of either agent to achieve the desired anti-restenotic effect.
FIG. 58 illustrates, in graphical format, the anti-proliferative activity of cladribine in non-synchronized cultured human coronary artery smooth muscle cells stimulated with two percent fetal bovine serum.
The multiple curves represent various concentrations of cladribine ranging from zero to nine hundred nanomolar concentrations. […] As illustrated, the percent inhibition increases substantially as the dose of cladribine increases.

[3] = test system: human coronary artery smooth muscle cell; test: MTS cytotoxicity assay; format: cell-based; details: concentrations up to 30,000.00 nanomolar
Text: Typically, a control is utilized to determine baseline toxicity.

[4] = test system: human coronary artery smooth muscle cells; test: Proliferation of synchronized cultured human coronary artery smooth muscle cells stimulated with two percent fetal bovine serum; format: cell-based; details: for effect of added agent on anti-proliferative rapamycin dose response: added to rapamycin-treated cells
Text: (§1) The multiple curves represent various concentrations of topotecan ranging from zero to three hundred nanomolar concentrations.
(§2) The multiple curves represent various concentrations of etoposide ranging from zero to eight hundred nanomolar concentrations.
The multiple curves represent various concentrations of Panzem® ranging from zero to 100 micromolar concentrations.

[5] = Porcine drug elution PK study of dual drug eluting stent; format: in vivo; details: after eight (8) days of implantation; single-layer sirolimus/cilostazol coating (FIG. 83), 100 μg BMA overcoat
Text: Another critical parameter for the performance of the thrombus resistance of a device coated with cilostazol is the duration of the drug release from the coating. This is of particular significance in the two weeks after device implantation. In the porcine drug elution PK studies of the dual drug eluting coating, both cilostazol and sirolius were slowly released from the coating, resulting in a sustained drug release profile. The purpose of the porcine PK study is to assess the local pharmacokinetics of a drug eluting stent at a given implantation time. Normally three stents are implanted in three different coronary arteries in a pig for a given time point and then retrieved for total drug recovery analysis. The stents are retrieved at predetermined time points; namely, 1, 3 and 8 days. The stents are extracted and the total amount of drug remaining on the stents is determined by analysis utilizing HPLC (high performance liquid chromatography) for total drug amount. The difference between the original amount of drug on the stent and the amount of drug retrieved at a given time represents the amount of drug released in that period. The continuous release of drug into surrounding arterial tissue is what prevents the neointimal growth and restenosis in the coronary artery. A normal plot represents the percentage of total drug released (%, y-axis) vs. time of implantation (day, x-axis). […]

[6] = In vitro release from sirolimus/cilostazol single layer stent coating; format: physicochemical; details: single-layer sirolimus/cilostazol coating (FIG. 83)
[7] = test system: cell viability; test: Cell viability assay; format: cell-based
Text: as §1, §2

[8] = test system: human coronary artery smooth muscle cell; test: Human coronary artery smooth muscle cell proliferation, in vitro cell culture study (trichostatin A); format: cell-based
Text: FIG. 51 is a graph of the inhibition of coronary artery smooth muscle cells by trichostatin A in a cell culture study.

[9] = test system: tumor cell lines; details: cited from earlier work

## CO[C@H]1C[C@@H]2CC[C@@H](C)[C@@](O)(O2)C(=O)C(=O)N2CCCC[C@H]2C(=O)O[C@H]([C@H](C)C[C@@H]2CC[C@@H](OC(=O)C(C)(CO)CO)[C@H](OC)C2)CC(=O)[C@H](C)/C=C(\C)[C@@H](O)[C@@H](OC)C(=O)[C@H](C)C[C@H](C)/C=C/C=C/C=C/1C [CCI-779]
[1]
  concentration in the final solution (HPLC assay): 15000 µg/mL

## Nc1nc(Cl)nc2c1ncn2[C@H]1C[C@H](O)[C@@H](CO)O1 [Cladribine, 2-chlorodeoxyadenosine]
[2]
  effect of added agent on anti-proliferative rapamycin dose response: potentiate the anti-proliferative activity of rapamycin
[2]; two percent fetal bovine serum
  inhibition of human coronary artery smooth muscle cell proliferation: completely inhibits

## COc1cc2c(cc1O)CC[C@@H]1[C@@H]2CC[C@]2(C)[C@@H](O)CC[C@@H]12 [Panzem®, 2-methoxyestradiol]
[3]
  human coronary artery smooth muscle cell survival (MTS): do not reduce human coronary artery smooth muscle cell survival
[4]
  effect of added agent on anti-proliferative rapamycin dose response: increases the percent of inhibition of rapamycin alone
[4]; two percent fetal bovine serum
  inhibition of human coronary artery smooth muscle cell proliferation in vitro: extremely effective inhibitor

## CO[C@H]1C[C@@H]2CC[C@@H](C)[C@@](O)(O2)C(=O)C(=O)N2CCCC[C@H]2C(=O)O[C@H]([C@H](C)C[C@@H]2CC[C@@H](O)[C@H](OC)C2)CC(=O)[C@H](C)/C=C(\C)[C@@H](O)[C@@H](OC)C(=O)[C@H](C)C[C@H](C)/C=C/C=C/C=C/1C [Rapamycin, rapamycin]
[5]
  drug remaining in the drug coating: ~80%

## O=C1CCc2cc(OCCCCc3nnnn3C3CCCCC3)ccc2N1 [cilostazol, 6[4-(1-cyclohexyl-1H-tetrazol-5-yl)-butoxy]-3,4-dihydro-2-(1H)-quinolinone]
[5]
  drug remaining in the drug coating: ~80%
[6]
  in vitro release: ~35%

## COc1cc([C@@H]2c3cc4c(cc3[C@@H](O[C@@H]3O[C@@H]5CO[C@@H](C)O[C@H]5[C@H](O)[C@H]3O)[C@H]3COC(=O)[C@H]23)OCO4)cc(OC)c1O [etoposide]
[2]
  effect of added agent on anti-proliferative rapamycin dose response: potentiate the anti-proliferative activity of rapamycin
[7]; concentrations up to ten micromolar
  cytotoxicity in cell viability assay: non-cytotoxic

## COc1c(C)c2c(c(O)c1C/C=C(\C)CCC(=O)O)C(=O)OC2 [mycophenolic acid]
[2]
  effect of added agent on anti-proliferative rapamycin dose response: potentiates the anti-proliferative activity of rapamycin

## CC[C@@]1(O)C(=O)OCc2c1cc1n(c2=O)Cc2cc3c(CN(C)C)c(O)ccc3nc2-1 [topotecan]
[7]; concentrations up to one micromolar
  cytotoxicity in cell viability assay: non-cytotoxic
[4]
  effect of added agent on anti-proliferative rapamycin dose response: potentiate the anti-proliferative activity of rapamycin

## CC(/C=C/C(=O)NO)=C\[C@@H](C)C(=O)c1ccc(N(C)C)cc1 [trichostatin A]
[8]
  inhibition of human coronary artery smooth muscle cell proliferation: completely inhibit
[8]; read-out: anti-proliferative IC50
  IC50: ~6 nM
[9]
  anti-proliferative IC50: low nM range
